Data from ChEMBL document CHEMBL1125963, “Triply-convergent synthesis of a homochiral 3,3-dimethyl, 15-cyclohexyl prostacyclin analog” (Bioorg Med Chem Lett, 1991).

What was measured:
Homo sapiens [1] = species on record: Homo sapiens; experiment: Concentration required to inhibit collagen-induced platelet aggregation by 50 % (>10 uM); IA means inactive; assay type: functional
Homo sapiens [2] = species on record: Homo sapiens; experiment: Concentration required to inhibit collagen-induced platelet aggregation by 50 %; assay type: functional

| Compound | IC50 (Homo sapiens [1]) | IC50 (Homo sapiens [2]) [nM] |
| --- | --- | --- |
| O=C(O)COc1cccc2c1C[C@H]1C[C@@H](O)[C@H](CC[C@@H](O)C3CCCCC3)[C@H]1C2 | Not Active | – |
| CCCCC[C@H](O)/C=C/[C@@H]1[C@H]2C/C(=C/CCCC(=O)O)C[C@H]2C[C@H]1O | Not Active | – |
| CCC#CC[C@H](C)[C@H](O)C#C[C@@H]1[C@H]2C/C(=C/COCC(=O)O)C[C@H]2C[C@H]1O [CICAPROST] | Not Active | – |

Now from value to molecule:

| IC50 (Homo sapiens [1]) | IC50 (Homo sapiens [2]) [nM] | Compound |
| --- | --- | --- |
| Not Active | – | CC(C)(C/C=C1\C[C@H]2C[C@@H](O)[C@H](C#C[C@@H](O)C3CCCCC3)[C@H]2C1)CCO |
| – | 480 | CC(C)(C/C=C1\C[C@H]2C[C@@H](O)[C@H](C#C[C@H](O)C3CCCCC3)[C@H]2C1)CC(=O)O |
